This assay relates to 192522-019-R-J2-PDC complex tumor spheroid viability. Description: Anticancer human tumor 192522-019-R-J2-PDC patient-derived colon adenocarcinoma cell line growth inhibition [POLQ]. The following applies: for viability, T/C: stronger effect = lower value. On the procedure:
Multicellular complex tumor spheroid response to Polymerase (POL) inhibitors (novobiocin, ART-558, RP6685) in combination with a variety of drugs and investigational agents in selected tumor cell lines
The POL inhibitors (novobiocin, ART-558, and RP6685) were evaluated both individually and in combination with standard of care and investigational anticancer small molecules within a complex spheroid model of solid tumors. . Complex spheroids include a stromal component modeled by human endothelial cells (HUVEC) and fibroblasts modeled by human mesenchymal stem cells (MSCs). The concentration ranges selected for each drug and investigational agent were based upon clinically achievable concentrations if the clinical Cmax of the agent was known.
Compounds. The drugs and investigational agents: novobiocin (NSC847541), ART-558 (NSC835418), RP-6685 (NSC848927), peposertib (NSC802822), ceralasertib (NSC780249), elimusertib (NSC800525), camonsertib (NSC841442), AZD-1390 (NSC803789), olaparib (NSC753686), talazoparib (NSC767125), rucaparib (NSC756644), sotorasib (NSC818433), MRTX-1133 (NSC836407), SN-38 (NSC673596), topotecan (NSC609699), epotoside (NSC141540), doxorubicin (NSC123127), gemcitabine (NSC613327), 5-fluorouracil (NSC19893), paclitaxel (NSC125973), vemurafenib (NSC761431), MSA-2 (NSC828583), SN-011 (NSC837082), adavosertib (NSC754352), prexasertib (NSC758257), carboplatin (NSC241240) and oxaliplatin (NSC266046), were obtained from the National Cancer Institute (NCI) Developmental Therapeutics Program Chemical Repository (21). The FDA-approved anticancer drug set is available from the Developmental Therapeutics Program at https://dtp.cancer.gov/organization/dscb/obtaining/. […] The stock solutions were prepared in dimethyl sulfoxide (DMSO, Sigma-Aldrich, St. Louis, MO, cat. D2650), except for the platinum compounds which were prepared in saline (Quality Biological, Gaithersburg, MD, cat. 114-055-101), at 800-fold the tested concentration and stored at -70 degrees C prior to their use. All drugs and investigational agents were tested over a range starting from a high concentration at or near the clinical Cmax and decreasing in half-log increments. If the clinical Cmax for an agent had not been determined, the highest concentration tested was 10 microM, except for SN-38, which was tested at a high concentration of 1 microM.
Cell Culture. All cells were maintained in an incubator at 37 degrees C and 5% CO2 with 95% humidity. The PDC lines were cultured according to standard operating procedures established by the NCI PDMR (https://pdmr.cancer.gov). Table 3 of the manuscript, lists the cell lines along with the number of the three cell types plated to form the mct-spheroids and media for tumor cell growth. After thawing, all PDC lines, except 997537-175-T-J1-PDC and 415267-285-R-J2-PDC, were cultured in Matrigel-coated flasks prepared with a working solution of 1X Ham's F-12 nutrient mix, without supplementation (Thermo Fisher Scientific, cat. 11765054), 100 U/mL penicillin-streptomycin (Thermo Fisher Scientific, cat. 15140122), and 2.5% Matrigel (Corning Inc., Corning, NY, cat. 354248) for the first three passages. The two PDC lines 997537-175-T-J1-PDC and 415267-285-R-J2-PDC were cultured on uncoated flasks. The 857933-349-R-J2-PDC line was cultured in 6C/Colon 1B media containing advanced DMEM/F-12 (Thermo Fisher Scientific, cat. 12634028), 10 mM HEPES (Thermo Fisher Scientific, cat. 15630080), 1X GlutaMAX supplement (Thermo Fisher Scientific, cat. 35050061), 0.1 mg/mL primocin (InvivoGen, San Diego, CA, cat. ant-pm-2), 10% defined fetal bovine serum, heat inactivated (HyClone Laboratories Inc., Logan, UT, cat. SH30070.03HI), 50% L-WRN conditioned media (ATCC, cat. CRL-3276), 1.25 mM N-Acetyl-L-cysteine (Sigma-Aldrich, cat. A9165), 10 mM nicotinamide (Sigma-Aldrich, cat. N0636), 1X B-27 supplement (Thermo Fisher Scientific, cat. 17504044), 1X N-2 supplement (Thermo Fisher Scientific, cat. […]

“And” between values parts separate entries of the source, which are not always exact repeats. Identical values can stand only once.
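Note: spheroids exposed to drugs for seven days before reading.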
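Throughout, for viability, T/C: 100% = DMSO vehicle control viability in luminescence.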

Broadly, the viability, T/C is the result in the treated group divided by that in the control group, in per cent. By IC50 is commonly meant the concentration that gives 50% inhibition. Turning to `C#Cc1c(F)ccc2cc(O)cc(-c3ncc4c(N5CC6CCC(C5)N6)nc(OCC56CCCN5CC(F)C6)nc4c3F)c12` (stereo unspecified), the viability, T/C reads like this: (compound 0.0316 µM) 102% and 98.2% and 109%; (compound 0.1 µM) 93.6% and 81.8% and 87.3%; (compound 0.316 µM) 73.3% and 77.1% and 80.5%; (compound 1 µM) 78.4% and 77.9% and 83.4%; (compound 3.16 µM) 78.9% and 73.7% and 70.6%; (compound 10 µM) 67.8% and 64.1% and 64.3%. In addition, the IC50 (curve of compound) was above 10 µM.

With `C=CC(=O)N1CCN(c2nc(=O)n(-c3c(C)ccnc3C(C)C)c3nc(-c4c(O)cccc4F)c(F)cc23)C(C)C1` (stereo unspecified), the viability, T/C is, setting by setting: (compound 0.0316 µM) 107% (2×) and 105%; (compound 0.1 µM) 92.4% and 101% and 94.3%; (compound 0.316 µM) 95% and 94.1% and 97.7%; (compound 1 µM) 106% and 102% and 109%; (compound 3.16 µM) 104% and 113% and 112%; (compound 10 µM) 104% and 109% and 108%. Where the note is “curve of compound”, the IC50 is above 10 µM.

`CC1COCCN1c1cc(C2(O)CC3CCC(C2)O3)c2cnn(-c3ccn[nH]3)c2n1` (stereo unspecified): the viability, T/C was 108% and 105% and 100% (compound 0.0316 µM); 70.7% and 76.9% and 78.7% (compound 0.1 µM); 42% and 35.6% and 46% (compound 0.316 µM); 33.8% and 33.4% and 34.9% (compound 1 µM); 45.5% and 42.6% and 44.3% (compound 3.16 µM); 49.2% and 50.7% and 51.2% (compound 10 µM). Moreover, the IC50 (curve of compound) was 0.234 µM and 0.235 µM and 0.272 µM.

Turning to `CCc1cc2c(N3CCc4c(cc(Cn5ccnc5)cc4-c4cn(C)nc4C(F)(F)F)C3=O)cc(C)nc2c(OC)n1`, the viability, T/C runs as follows: (compound 0.0316 µM) 109% and 107% and 102%; (compound 0.1 µM) 91.4% and 91% and 94.7%; (compound 0.316 µM) 80.7% and 86.7% and 85.3%; (compound 1 µM) 80.1% and 82% and 77.7%; (compound 3.16 µM) 73.1% and 73% and 75.4%; (compound 10 µM) 68.1% and 75.8% and 68.3%. Further, the IC50 (curve of compound) is above 10 µM.

On to `CCc1cc2c(N3CCc4c(cc(Cn5ccnc5)cc4-c4cn(C)nc4C(F)(F)F)C3=O)ccnc2c(OC)n1`, for which the viability, T/C runs as follows: (compound 0.0316 µM) 102% (2×) and 107%; (compound 0.1 µM) 84.3% and 91.4% and 86.7%; (compound 0.316 µM) 88.2% and 90.7% and 92.4%; (compound 1 µM) 87.8% and 81.3% and 83.7%; (compound 3.16 µM) 76.5% and 75.1% and 70.2%; (compound 10 µM) 65.6% and 72.1% and 73%. Further, where the note is “curve of compound”, the IC50 is above 10 µM.

Take `COc1cc2cc(C(=O)CCC(=O)O)sc2cc1OC`: the viability, T/C runs as follows: (compound 0.0316 µM) 103% and 106% and 111%; (compound 0.1 µM) 102% and 92.6% and 99.8%; (compound 0.316 µM) 90.1% and 107% and 96.3%; (compound 1 µM) 96.8% and 99.9% and 102%; (compound 3.16 µM) 115% and 103% and 100%; (compound 10 µM) 100% and 98.1% and 91.6%. Moreover, where the note is “curve of compound”, the half-inhibitory concentration (IC50) was above 10 µM.

As for `O=C(Nc1ccc(O)c(NS(=O)(=O)c2ccc(F)cc2)c1)c1ccc(-c2ccccc2)cc1`, the viability, T/C by setting is: (compound 0.0316 µM) 104% and 99.9% and 101%; (compound 0.1 µM) 99.1% and 96.7% and 91.7%; (compound 0.316 µM) 102% and 97.6% and 88.4%; (compound 1 µM) 101% and 99.2% and 96%; (compound 3.16 µM) 103% and 99.1% and 99.2%; (compound 10 µM) 104% and 100% and 93.4%. Also, under “curve of compound”, the IC50 was above 10 µM.

Take `CC(=O)O[C@H]1C(=O)[C@@]2(C)[C@H]([C@H](OC(=O)c3ccccc3)[C@]3(O)C[C@H](OC(=O)[C@H](O)[C@@H](NC(=O)c4ccccc4)c4ccccc4)C(C)=C1C3(C)C)[C@]1(OC(C)=O)CO[C@@H]1C[C@@H]2O` + COC1C(OC(N)=O)C(O)C(Oc2ccc3c(O)c(NC(=O)c4ccc(O)c(CC=C(C)C)c4)c(=O)oc3c2C)OC1(C)C: the IC50 (curve of first compound, second compound 0.0316 µM) was above 3 µM; the IC50 (curve of first compound, second compound 0.1 µM) was above 3 µM; the half-inhibitory concentration (IC50) (curve of first compound, second compound 0.316 µM) was above 3 µM; the half-maximal inhibitory concentration (IC50) (curve of first compound, second compound 1 µM) is above 3 µM; the IC50 (curve of first compound, second compound 3.16 µM) was above 3 µM; the IC50 (curve of first compound, second compound 10 µM) was above 3 µM. Further, the viability, T/C (second compound 0.0316 µM, first compound 0.00949 µM) worked out at 94.2%; the viability, T/C (second compound 0.0316 µM, first compound 0.03 µM) is 72.8%; the viability, T/C (second compound 0.0316 µM, first compound 0.0949 µM) stood at 56.6%; the viability, T/C (second compound 0.0316 µM, first compound 0.3 µM) was 55.9%; the viability, T/C (second compound 0.0316 µM, first compound 0.949 µM) turned out to be 55.2%; the viability, T/C (second compound 0.0316 µM, first compound 3 µM) is 48.5%. Further, the viability, T/C (second compound 0.1 µM, first compound 0.00949 µM) was 95.6%; the viability, T/C (second compound 0.1 µM, first compound 0.03 µM) was 74.7%; the viability, T/C (second compound 0.1 µM, first compound 0.0949 µM) is 59.5%; the viability, T/C (second compound 0.1 µM, first compound 0.3 µM) turned out to be 54.7%; the viability, T/C (second compound 0.1 µM, first compound 0.949 µM) is 51.6%; the viability, T/C (second compound 0.1 µM, first compound 3 µM) was 56.9%. For the same molecule, the viability, T/C reads like this: (second compound 0.316 µM, first compound 0.00949 µM) 91.6%; (second compound 0.316 µM, first compound 0.03 µM) 78.1%; (second compound 0.316 µM, first compound 0.0949 µM) 59.6%; (second compound 0.316 µM, first compound 0.3 µM) 61.9%; (second compound 0.316 µM, first compound 0.949 µM) 54.6%; (second compound 0.316 µM, first compound 3 µM) 52.4%. The viability, T/C came to 102% (second compound 1 µM, first compound 0.00949 µM); 80.6% (second compound 1 µM, first compound 0.03 µM); 56.6% (second compound 1 µM, first compound 0.0949 µM); 52.7% (second compound 1 µM, first compound 0.3 µM); 56.1% (second compound 1 µM, first compound 0.949 µM); 54% (second compound 1 µM, first compound 3 µM). The viability, T/C worked out at 99.1% (second compound 3.16 µM, first compound 0.00949 µM); 84.6% (second compound 3.16 µM, first compound 0.03 µM); 61.5% (second compound 3.16 µM, first compound 0.0949 µM); 55.8% (second compound 3.16 µM, first compound 0.3 µM); 56.1% (second compound 3.16 µM, first compound 0.949 µM); 59.7% (second compound 3.16 µM, first compound 3 µM). Besides, the viability, T/C runs as follows: (second compound 10 µM, first compound 0.00949 µM) 102%; (second compound 10 µM, first compound 0.03 µM) 76.8%; (second compound 10 µM, first compound 0.0949 µM) 57.1%; (second compound 10 µM, first compound 0.3 µM) 55.4%; (second compound 10 µM, first compound 0.949 µM) 64%; (second compound 10 µM, first compound 3 µM) 63.1%.

The values above are taken from PubChem BioAssay AID1963850 (Molecular Pharmacology Branch, DTP, NCI, 2024).
